Experimental data as given in US11478469B2, “Combination product of BCL-2 inhibitor and MDM2 inhibitor and use thereof in the prevention and/or treatment of diseases” (ASCENTAGE PHARMA (SUZHOU) CO., LTD., priority 2018, dated 2022).

What was measured:
[1] = test system: KMS-26 (multiple myeloma (MM)); assay: CellTiter-Glo (CTG) cell proliferation assay, KMS-26; type: cell-based; settings: KMS-26, single agent alone, 24 hours; read-out: IC50 for inhibition of proliferation
Method: (§1) Anti-proliferative effects were tested by CellTiter-Glo® (CTG) assay. Cells were seeded in 96-well plates and treated with different concentrations of test substance for 24 hours. By using 9 different concentrations of Compound 6 (which were selected in a 3× gradient between 10-3 and 101 μM, i.e., 0.0016, 0.0045, 0.014, 0.041, 0.12, 0.36, 1.1, 3.2, 10 μM) in combination with 3 different concentrations of MDM2 inhibitor (e.g., APG-115) in action for 24 hours, the effects of Compound 6 in combination with the drug were tested. Each test dose was tested with 3 replicate wells.
(§2) Usually, 9 series of doses of the test substance were selected, and added to 96-well plates, 5 μl/well. For the combination experiment, the final volume of the two test substances was 5 μl/well. […] After mixing on a shaker for 2 minutes, leaving at room temperature for 10 minutes, the fluorescence value was read by using a Biotek synergy HIMF plate reader. Using the average fluorescence value of 3 replicate wells, the percentage of cell viability was calculated by the following formula: Cell viability (%)=(fluorescence value of test well—fluorescence value of negative control well)/(fluorescence value of vehicle control-fluorescence value of negative control group)×100%
(§3) The IC50 was calculated using the nonlinear regression data analysis method of Graphpad Prism 6.0 software ([…]). […]

[2] = test system: KMS-11 (multiple myeloma (MM)); assay: CellTiter-Glo (CTG) cell proliferation assay, KMS-11; type: cell-based; settings: Homo sapiens; KMS-11, single agent alone, 24 hours; read-out: IC50 for inhibition of proliferation
Method: as §1, §2, §3

O=C(NS(=O)(=O)c1ccc(NC[C@H]2COCCO2)c([N+](=O)[O-])c1)c1ccc(N2CCN(CC3=C(c4ccc(Cl)cc4)CC4(CCC4)CC3)CC2)cc1Oc1cnc2[nH]ccc2c1 [Compound 6, (S)-N-((4-(((1,4-dioxan-2-yl)methyl)amino)-3-nitrophe-nyl)sulfonyl)-2-((1H-pyrrolo[2,3-b]pyridin-5-yl)oxy)-4-(4-((6-(4-chlorophenyl)spiro[3.5]non-6-en-7-yl)meth-yl)piperazin-1-yl)benzamide] was tested, and the IC50 [1] was 14.7 µM and the IC50 [2] was 10.8 µM.
